Measurements reported in the supplement of paper PMC10307832.

What was measured:
Test in all cases: relative viability (nuclei count vs DMSO), 5 days (fraction); higher = more cells survive
[1] = test system: EKVX
How it was run: (§1)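 Lung cancer cell lines in 1536-well plates got either a single drug or a fixed anchor-drug dose together with five library-drug doses (not always all listed) in √10 steps, by pin tool, on the day after seeding. Nuclei were counted after 5 days, and relative viability is the treated-to-vehicle ratio of nuclei counts. Values are medians of duplicate plates.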

[2] = test system: NCI-H1666
How it was run: as §1

[3] = test system: NCI-H2342
How it was run: as §1

[4] = test system: HCC-827
How it was run: as §1

[5] = test system: NCI-H647
How it was run: as §1

[6] = test system: NCI-H650
How it was run: as §1

[7] = test system: HCC-44
How it was run: as §1

[8] = test system: 201T
How it was run: as §1

[9] = test system: NCI-H1975
How it was run: as §1

[10] = test system: COR-L 105
How it was run: as §1

[11] = test system: NCI-H2170
How it was run: as §1

[12] = test system: NCI-H1437
How it was run: as §1

[13] = test system: H3255
How it was run: as §1

[14] = test system: LCLC-97TM1
How it was run: as §1

[15] = test system: LU99A
How it was run: as §1

[16] = test system: EPLC-272H
How it was run: as §1

[17] = test system: NCI-H2085
How it was run: as §1

[18] = test system: NCI-H2087
How it was run: as §1

[19] = test system: SW 1573
How it was run: as §1

[20] = test system: BEN
How it was run: as §1

[21] = test system: PC-3 [JPC-3]
How it was run: as §1

[22] = test system: LOU-NH91
How it was run: as §1

Question: For `O=c1cc(-c2cccc3c2Sc2ccccc2S3)oc(N2CCOCC2)c1` + Nc1ncn([C@H]2C[C@H](O)[C@@H](CO)O2)c(=O)n1 [Decitabine] (partner 2 µM), which relative viability ([1]; first compound 0.08 µM) is on record?
Answer: 0.431

Question: What about the relative viability ([1]; first compound 0.253 µM) of the same molecule?
Answer: 0.34

Question: What about the relative viability ([1]; first compound 0.8 µM) of the same molecule?
Answer: 0.371

Question: What about the relative viability ([1]; first compound 2.53 µM) of the same molecule?
Answer: 0.37

Question: And the relative viability ([1]; first compound 8 µM)?
Answer: 0.349

Question: What about the relative viability ([2]; first compound 0.08 µM) of the same molecule?
Answer: 0.664

Question: And the relative viability ([2]; first compound 0.253 µM)?
Answer: 0.799

Question: What about the relative viability ([2]; first compound 0.8 µM) of the same molecule?
Answer: 0.706

Question: What about the relative viability ([2]; first compound 2.53 µM) of the same molecule?
Answer: 0.678

Question: And the relative viability ([2]; first compound 8 µM)?
Answer: 0.762

Question: What about the relative viability ([3]; first compound 0.08 µM) of the same molecule?
Answer: 0.662

Question: And the relative viability ([3]; first compound 0.253 µM)?
Answer: 0.794

Question: And the relative viability ([3]; first compound 0.8 µM)?
Answer: 0.734

Question: What about the relative viability ([3]; first compound 2.53 µM) of the same molecule?
Answer: 0.721

Question: And the relative viability ([3]; first compound 8 µM)?
Answer: 0.77

Question: And the relative viability ([4]; first compound 0.08 µM)?
Answer: 0.266

Question: And the relative viability ([4]; first compound 0.253 µM)?
Answer: 0.341

Question: And the relative viability ([4]; first compound 0.8 µM)?
Answer: 0.315

Question: What about the relative viability ([4]; first compound 2.53 µM) of the same molecule?
Answer: 0.219

Question: What about the relative viability ([4]; first compound 8 µM) of the same molecule?
Answer: 0.344

Question: What about the relative viability ([5]; first compound 0.08 µM) of the same molecule?
Answer: 0.428

Question: And the relative viability ([5]; first compound 0.253 µM)?
Answer: 0.534

Question: What about the relative viability ([5]; first compound 0.8 µM) of the same molecule?
Answer: 0.414

Question: And the relative viability ([5]; first compound 2.53 µM)?
Answer: 0.403

Question: And the relative viability ([5]; first compound 8 µM)?
Answer: 0.45

Question: And the relative viability ([6]; first compound 0.08 µM)?
Answer: 0.317

Question: What about the relative viability ([6]; first compound 0.253 µM) of the same molecule?
Answer: 0.352

Question: And the relative viability ([6]; first compound 0.8 µM)?
Answer: 0.513

Question: And the relative viability ([6]; first compound 2.53 µM)?
Answer: 0.322

Question: And the relative viability ([6]; first compound 8 µM)?
Answer: 0.29

Question: What about the relative viability ([7]; first compound 0.08 µM) of the same molecule?
Answer: 0.93

Question: What about the relative viability ([7]; first compound 0.253 µM) of the same molecule?
Answer: 1.02

Question: And the relative viability ([7]; first compound 0.8 µM)?
Answer: 0.968

Question: And the relative viability ([7]; first compound 2.53 µM)?
Answer: 0.88

Question: What about the relative viability ([7]; first compound 8 µM) of the same molecule?
Answer: 0.965

Question: What about the relative viability ([8]; first compound 0.08 µM) of the same molecule?
Answer: 0.855

Question: And the relative viability ([8]; first compound 0.253 µM)?
Answer: 0.882

Question: And the relative viability ([8]; first compound 0.8 µM)?
Answer: 0.893

Question: And the relative viability ([8]; first compound 2.53 µM)?
Answer: 0.816

Question: What about the relative viability ([8]; first compound 8 µM) of the same molecule?
Answer: 0.744

Question: And the relative viability ([9]; first compound 0.08 µM)?
Answer: 0.366

Question: And the relative viability ([9]; first compound 0.253 µM)?
Answer: 0.36

Question: What about the relative viability ([9]; first compound 0.8 µM) of the same molecule?
Answer: 0.348

Question: What about the relative viability ([9]; first compound 2.53 µM) of the same molecule?
Answer: 0.38

Question: And the relative viability ([9]; first compound 8 µM)?
Answer: 0.381

Question: What about the relative viability ([10]; first compound 0.08 µM) of the same molecule?
Answer: 0.603

Question: What about the relative viability ([10]; first compound 0.253 µM) of the same molecule?
Answer: 0.568

Question: What about the relative viability ([10]; first compound 0.8 µM) of the same molecule?
Answer: 0.583

Question: And the relative viability ([10]; first compound 2.53 µM)?
Answer: 0.612

Question: And the relative viability ([10]; first compound 8 µM)?
Answer: 0.74

Question: And the relative viability ([11]; first compound 0.08 µM)?
Answer: 0.439

Question: And the relative viability ([11]; first compound 0.253 µM)?
Answer: 0.524

Question: And the relative viability ([11]; first compound 0.8 µM)?
Answer: 0.48

Question: And the relative viability ([11]; first compound 2.53 µM)?
Answer: 0.424

Question: And the relative viability ([11]; first compound 8 µM)?
Answer: 0.465

Question: What about the relative viability ([12]; first compound 0.08 µM) of the same molecule?
Answer: 0.573

Question: What about the relative viability ([12]; first compound 0.253 µM) of the same molecule?
Answer: 0.708

Question: What about the relative viability ([12]; first compound 0.8 µM) of the same molecule?
Answer: 0.628

Question: And the relative viability ([12]; first compound 2.53 µM)?
Answer: 0.524

Question: What about the relative viability ([12]; first compound 8 µM) of the same molecule?
Answer: 0.578

Question: And the relative viability ([13]; first compound 0.08 µM)?
Answer: 0.653

Question: And the relative viability ([13]; first compound 0.253 µM)?
Answer: 0.68

Question: And the relative viability ([13]; first compound 0.8 µM)?
Answer: 0.631

Question: What about the relative viability ([13]; first compound 2.53 µM) of the same molecule?
Answer: 0.558

Question: What about the relative viability ([13]; first compound 8 µM) of the same molecule?
Answer: 0.689

Question: And the relative viability ([14]; first compound 0.08 µM)?
Answer: 0.195

Question: What about the relative viability ([14]; first compound 0.253 µM) of the same molecule?
Answer: 0.217

Question: What about the relative viability ([14]; first compound 0.8 µM) of the same molecule?
Answer: 0.256

Question: And the relative viability ([14]; first compound 2.53 µM)?
Answer: 0.186

Question: And the relative viability ([14]; first compound 8 µM)?
Answer: 0.242

Question: And the relative viability ([15]; first compound 0.08 µM)?
Answer: 0.897

Question: What about the relative viability ([15]; first compound 0.253 µM) of the same molecule?
Answer: 0.996

Question: And the relative viability ([15]; first compound 0.8 µM)?
Answer: 1.04

Question: And the relative viability ([15]; first compound 2.53 µM)?
Answer: 0.866

Question: And the relative viability ([15]; first compound 8 µM)?
Answer: 1.18

Question: What about the relative viability ([16]; first compound 0.08 µM) of the same molecule?
Answer: 0.341

Question: And the relative viability ([16]; first compound 0.253 µM)?
Answer: 0.409

Question: And the relative viability ([16]; first compound 0.8 µM)?
Answer: 0.363

Question: And the relative viability ([16]; first compound 2.53 µM)?
Answer: 0.343

Question: What about the relative viability ([16]; first compound 8 µM) of the same molecule?
Answer: 0.366

Question: And the relative viability ([17]; first compound 0.08 µM)?
Answer: 0.532

Question: And the relative viability ([17]; first compound 0.253 µM)?
Answer: 0.578

Question: And the relative viability ([17]; first compound 0.8 µM)?
Answer: 0.52

Question: What about the relative viability ([17]; first compound 2.53 µM) of the same molecule?
Answer: 0.519

Question: What about the relative viability ([17]; first compound 8 µM) of the same molecule?
Answer: 0.537

Question: And the relative viability ([18]; first compound 0.08 µM)?
Answer: 0.231

Question: What about the relative viability ([18]; first compound 0.253 µM) of the same molecule?
Answer: 0.257

Question: And the relative viability ([18]; first compound 0.8 µM)?
Answer: 0.266

Question: What about the relative viability ([18]; first compound 2.53 µM) of the same molecule?
Answer: 0.242

Question: And the relative viability ([18]; first compound 8 µM)?
Answer: 0.238

Question: What about the relative viability ([19]; first compound 0.08 µM) of the same molecule?
Answer: 0.561

Question: What about the relative viability ([19]; first compound 0.253 µM) of the same molecule?
Answer: 0.575

Question: And the relative viability ([19]; first compound 0.8 µM)?
Answer: 0.598

Question: And the relative viability ([19]; first compound 2.53 µM)?
Answer: 0.448

Question: What about the relative viability ([19]; first compound 8 µM) of the same molecule?
Answer: 0.596

Question: What about the relative viability ([20]; first compound 0.08 µM) of the same molecule?
Answer: 0.649

Question: What about the relative viability ([20]; first compound 0.253 µM) of the same molecule?
Answer: 0.699

Question: And the relative viability ([20]; first compound 0.8 µM)?
Answer: 0.69

Question: And the relative viability ([20]; first compound 2.53 µM)?
Answer: 0.586

Question: And the relative viability ([20]; first compound 8 µM)?
Answer: 0.943

Question: And the relative viability ([21]; first compound 0.08 µM)?
Answer: 0.733

Question: What about the relative viability ([21]; first compound 0.253 µM) of the same molecule?
Answer: 0.791

Question: And the relative viability ([21]; first compound 0.8 µM)?
Answer: 0.838

Question: What about the relative viability ([21]; first compound 2.53 µM) of the same molecule?
Answer: 0.79

Question: What about the relative viability ([21]; first compound 8 µM) of the same molecule?
Answer: 0.884

Question: And the relative viability ([22]; first compound 0.08 µM)?
Answer: 0.777

Question: What about the relative viability ([22]; first compound 0.253 µM) of the same molecule?
Answer: 0.894

Question: And the relative viability ([22]; first compound 0.8 µM)?
Answer: 0.784

Question: What about the relative viability ([22]; first compound 2.53 µM) of the same molecule?
Answer: 0.777

Question: And the relative viability ([22]; first compound 8 µM)?
Answer: 0.844
